Results on 15 compounds are retold here after patent US9511064B2, “Combination therapy for the treatment of cancer and immunosuppression” (Basilea Pharmaceutica AG, priority 2012, dated 2016).

One experiment has as its system mouse mast cell line 6.5. Briefly: AlamarBlue conversion cell proliferation assay, 6.5 cell line. Format: cell-based. How it is done:
(§1) The in vitro anti-proliferative activity of compounds of formula (I), metformin and combinations thereof is tested in an AlamarBlue conversion cell proliferation assay (Promega) on HL60 tumor cells and the mouse mast cell line 6.5 (Colombi et al., Oncogene 2011, 30:1551-65). Cells are seeded into 96-well microtiter plates (seeding cell density is 7,000 cells per well in 150 uL Iscove's medium) and test compounds are added (compounds of formula (I) are added from a 10 mM stock solution in DMSO, metformin from a freshly prepared 1 M solution in culture medium). Plates are incubated for 3 days at 37°, 5% CO2 and proliferation is determined by AlamarBlue staining (0.1 vol % added to cultures and incubated for further 4-5 hours). The conversion of AlamarBlue is proportional to live cell number and is read with a fluorescence plate reader (Ex/Em 535/595 nm). Growth is normalized to the untreated controls.

For another experiment, the system named is HL60 tumor cells. The experiment in a line: AlamarBlue conversion cell proliferation assay, HL60 cell line. Format: cell-based. How it is done:
as §1

Setting [1] is: read-out: concentration that inhibits the proliferation of cells by approximately 50% when combined with 4 mM metformin, 6.5 cell line, 3 days incubation.
The mark [2] stands for this setting: read-out: concentration that inhibits the proliferation of cells by approximately 50% when combined with 4 mM metformin, HL60 cell line, 3 days incubation.
Setting [3] is: combined with 4 mM metformin, 3 days incubation, read-out: concentration that inhibits the proliferation of cells by approximately 50% when combined with 4 mM metformin, 6.5 cell line.
Where [4] appears, read: combined with 4 mM metformin, 3 days incubation, read-out: concentration that inhibits the proliferation of cells by approximately 50% when combined with 4 mM metformin, HL60 cell line.

pIC50: −log10 of the molar value. Where two headings read alike, the source gives them in different places.

Take `COC(=O)[C@H]1[C@H]2C[C@@H]3c4[nH]c5cc(OC)ccc5c4CCN3C[C@H]2C[C@@H](OC(=O)c2cc(OC)c(OC(=O)OCc3ccncc3)c(OC)c2)[C@@H]1OC` [Example 6, methyl (1R,15S,17R,18R,19S,20S)-17-[(3,5-dimethoxy-4-{[(pyridin-4-ylmethoxy)carbonyl]oxy}phenyl)carbonyloxy]-6,18-dimethoxy-3,13-diazapentacyclo[11.8.0.0^2,10.0^4,9.0^15,20]henicosa-2(10),4,6,8-tetraene-19-carboxylate]: the pIC50 with mouse mast cell line 6.5 (setting [1]) and with HL60 tumor cells (setting [2]) was 5.60 in each case.
On to `COC(=O)[C@H]1[C@H]2C[C@@H]3c4[nH]c5cc(OC)ccc5c4CCN3C[C@H]2C[C@@H](OC(=O)c2cc(OC)c(OC(=O)OCc3cccnc3)c(OC)c2)[C@@H]1OC` [Example 7, methyl (1R,15S,17R,18R,19S,20S)-17-[(3,5-dimethoxy-4-{[(pyridin-3-ylmethoxy)carbonyl]oxy}phenyl)carbonyloxy]-6,18-dimethoxy-3,13-diazapentacyclo[11.8.0.0^2,10.0^4,9.0^15,20]henicosa-2(10),4,6,8-tetraene-19-carboxylate], for which the pIC50 in the experiment on mouse mast cell line 6.5 (setting [3]) is 5.60; in the experiment on HL60 tumor cells (setting [4]), 5.70.
In the case of `COC(=O)[C@H]1[C@H]2C[C@@H]3c4[nH]c5cc(OC)ccc5c4CCN3C[C@H]2C[C@@H](OC(=O)c2cc(OC)c(OC(=O)OCc3cc(OC)cc(OC)c3)c(OC)c2)[C@@H]1OC` [Example 8, methyl (1R,15S,17R,18R,19S,20S)-17-{[4-({[(3,5-dimethoxyphenyl)methoxy]carbonyl}oxy)-3,5-dimethoxyphenyl]carbonyloxy}-6,18-dimethoxy-3,13-diazapentacyclo[11.8.0.0^2,10.0^4,9.0^15,20]henicosa-2(10),4,6,8-tetraene-19-carboxylate], the pIC50 in the experiment with mouse mast cell line 6.5 (setting [3]) was 5.30; with HL60 tumor cells (setting [4]), 5.40.
The corresponding values for `COC(=O)[C@H]1[C@H]2C[C@@H]3c4[nH]c5cc(OC)ccc5c4CCN3C[C@H]2C[C@@H](OC(=O)c2cc(OC)c(OC(=O)OCc3ccc(Cl)cc3)c(OC)c2)[C@@H]1OC` [Example 9, methyl (1R,15S,17R,18R,19S,20S)-17-{[4-({[(4-chlorophenyl)methoxy]carbonyl}oxy)-3,5-dimethoxyphenyl]carbonyloxy}-6,18-dimethoxy-3,13-diazapentacyclo[11.8.0.0^2,10.0^4,9.0^15,20]henicosa-2(10),4,6,8-tetraene-19-carboxylate] are 5.40 and 5.40.
With `COC(=O)[C@H]1[C@H]2C[C@@H]3c4[nH]c5cc(OC)ccc5c4CCN3C[C@H]2C[C@@H](OC(=O)c2cc(OC)c(OC(=O)OCc3cc(Cl)cc(Cl)c3)c(OC)c2)[C@@H]1OC` [Example 10, methyl (1R,15S,17R,18R,19S,20S)-17-{[4-({[(3,5-dichlorophenyl)methoxy]carbonyl}oxy)-3,5-dimethoxyphenyl]carbonyloxy}-6,18-dimethoxy-3,13-diazapentacyclo[11.8.0.0^2,10.0^4,9.0^15,20]henicosa-2(10),4,6,8-tetraene-19-carboxylate], the pIC50 with mouse mast cell line 6.5 (setting [3]) and with HL60 tumor cells (setting [4]) was 6.00 throughout.
Take `CCOC(=O)Oc1c(OC)cc(C(=O)O[C@@H]2C[C@@H]3CN4CCc5c([nH]c6cc(OC(=O)OC(C)(C)C)ccc56)[C@H]4C[C@@H]3[C@H](C(=O)OC)[C@H]2OC)cc1OC` [Example 12, methyl (1R,15S,17R,18R,19S,20S)-6-{[(tert-butoxy)carbonyl]oxy}-17-({4-[(ethoxycarbonyl)oxy]-3,5-dimethoxyphenyl}carbonyloxy)-18-methoxy-3,13-diazapentacyclo[11.8.0.0^2,10.0^4,9.0^15,20]henicosa-2(10),4,6,8-tetraene-19-carboxylate]: the pIC50 with mouse mast cell line 6.5 (setting [1]) and with HL60 tumor cells (setting [2]) was 5.82 each time.
Consider `CCOC(=O)Oc1c(OC)cc(C(=O)O[C@@H]2C[C@@H]3CN4CCc5c([nH]c6cc(O)ccc56)[C@H]4C[C@@H]3[C@H](C(=O)OC)[C@H]2OC)cc1OC` [Example 13, methyl (1R,15S,17R,18R,19S,20S)-17-({4-[(ethoxycarbonyl)oxy]-3,5-dimethoxyphenyl}carbonyloxy)-6-hydroxy-18-methoxy-3,13-diazapentacyclo[11.8.0.0^2,10.0^4,9.0^15,20]henicosa-2(10),4,6,8-tetraene-19-carboxylate], for which the pIC50 is 6.00 with mouse mast cell line 6.5 (setting [3]) and 5.70 with HL60 tumor cells (setting [4]).
Consider `CCOC(=O)Oc1c(OC)cc(C(=O)O[C@@H]2C[C@@H]3CN4CCc5c([nH]c6cc(OC(C)=O)ccc56)[C@H]4C[C@@H]3[C@H](C(=O)OC)[C@H]2OC)cc1OC` [Example 14, methyl (1R,15S,17R,18R,19S,20S)-6-(acetyloxy)-17-({4-[(ethoxycarbonyl)oxy]-3,5-dimethoxyphenyl}carbonyloxy)-18-methoxy-3,13-diazapentacyclo[11.8.0.0^2,10.0^4,9.0^15,20]henicosa-2(10),4,6,8-tetraene-19-carboxylate], for which the pIC50 is 5.82 in the experiment on mouse mast cell line 6.5 (setting [3]) and 5.70 in the experiment on HL60 tumor cells (setting [4]).
As to `CCOC(=O)Oc1c(OC)cc(C(=O)O[C@@H]2C[C@@H]3CN4CCc5c([nH]c6cc(OC(=O)c7ccccc7)ccc56)[C@H]4C[C@@H]3[C@H](C(=O)OC)[C@H]2OC)cc1OC` [Example 15, methyl (1R,15S,17R,18R,19S,20S)-6-(benzoyloxy)-17-({4-[(ethoxycarbonyl)oxy]-3,5-dimethoxyphenyl}carbonyloxy)-18-methoxy-3,13-diazapentacyclo[11.8.0.0^2,10.0^4,9.0^15,20]henicosa-2(10),4,6,8-tetraene-19-carboxylate], the pIC50 with mouse mast cell line 6.5 (setting [3]) was 5.82; with HL60 tumor cells (setting [4]), 5.70.
As for `CCOC(=O)Oc1c(OC)cc(C(=O)O[C@@H]2C[C@@H]3CN4CCc5c([nH]c6cc(OC(=O)CN)ccc56)[C@H]4C[C@@H]3[C@H](C(=O)OC)[C@H]2OC)cc1OC` [Example 16, methyl (1R,15S,17R,18R,19S,20S)-6-[(2-aminoacetyl)oxy]-17-({4-[(ethoxycarbonyl)oxy]-3,5-dimethoxyphenyl}carbonyloxy)-18-methoxy-3,13-diazapentacyclo[11.8.0.0^2,10.0^4,9.0^15,20]henicosa-2(10),4,6,8-tetraene-19-carboxylate], the figures for the pIC50 in the experiment with mouse mast cell line 6.5 (setting [1]) and in the experiment on HL60 tumor cells (setting [2]) were 6.00 and 5.70, respectively.
Turning to `CCOC(=O)Oc1c(OC)cc(C(=O)O[C@@H]2C[C@@H]3CN4CCc5c([nH]c6cc(OC(=O)CNC(C)=O)ccc56)[C@H]4C[C@@H]3[C@H](C(=O)OC)[C@H]2OC)cc1OC` [Example 17, methyl (1R,15S,17R,18R,19S,20S)-6-[(2-acetamidoacetyl)oxy]-17-({4-[(ethoxycarbonyl)oxy]-3,5-dimethoxyphenyl}carbonyloxy)-18-methoxy-3,13-diazapentacyclo[11.8.0.0^2,10.0^4,9.0^15,20]henicosa-2(10),4,6,8-tetraene-19-carboxylate], the pIC50 in the experiment on mouse mast cell line 6.5 (setting [3]) is 6.00; in the experiment on HL60 tumor cells (setting [4]), 5.82.
On to `CCOC(=O)Oc1c(OC)cc(C(=O)O[C@@H]2C[C@@H]3CN4CCc5c([nH]c6cc(OC(=O)CNC(=O)c7ccccc7)ccc56)[C@H]4C[C@@H]3[C@H](C(=O)OC)[C@H]2OC)cc1OC` [Example 18, methyl (1R,15S,17R,18R,19S,20S)-17-({4-[(ethoxycarbonyl)oxy]-3,5-dimethoxyphenyl}carbonyloxy)-18-methoxy-6-{[2-(phenylformamido)acetyl]oxy}-3,13-diazapentacyclo[11.8.0.0^2,10.0^4,9.0^15,20]henicosa-2(10),4,6,8-tetraene-19-carboxylate], for which the pIC50 is 6.00 in the experiment on mouse mast cell line 6.5 (setting [3]) and 5.82 with HL60 tumor cells (setting [4]).
As to `COC(=O)[C@H]1[C@H]2C[C@@H]3c4[nH]c5cc(OC)ccc5c4CCN3C[C@H]2C[C@@H](OC(=O)c2cc(OC)c(OC(=O)Cc3ccccc3)c(OC)c2)[C@@H]1OC` [Example 20, methyl (1R,15S,17R,18R,19S,20S)-17-({3,5-dimethoxy-4-[(2-phenylacetyl)oxy]phenyl}carbonyloxy)-6,18-dimethoxy-3,13-diazapentacyclo[11.8.0.0^2,10.0^4,9.0^15,20]henicosa-2(10),4,6,8-tetraene-19-carboxylate], the pIC50 in the experiment with mouse mast cell line 6.5 (setting [1]) and with HL60 tumor cells (setting [2]) was 5.30 in each case.
On to `COC(=O)[C@H]1[C@H]2C[C@@H]3c4[nH]c5cc(OC)ccc5c4CCN3C[C@H]2C[C@@H](OC(=O)c2cc(OC)c(OC(=O)OCc3ccccc3)c(OC)c2)[C@@H]1OC` [Example 21, methyl (1R,15S,17R,18R,19S,20S)-17-[(4-{[(benzyloxy)carbonyl]oxy}-3,5-dimethoxyphenyl)carbonyloxy]-6,18-dimethoxy-3,13-diazapentacyclo[11.8.0.0^2,10.0^4,9.0^15,20]henicosa-2(10),4,6,8-tetraene-19-carboxylate], for which the results for the pIC50 in the experiment with mouse mast cell line 6.5 (setting [1]) and in the experiment on HL60 tumor cells (setting [2]) were 5.70 and 5.46, respectively.
Consider `COC(=O)[C@H]1[C@H]2C[C@@H]3c4[nH]c5cc(OC)ccc5c4CCN3C[C@H]2C[C@@H](OC(=O)c2cc(OC)c(OC(=O)OCc3cccc(Br)c3)c(OC)c2)[C@@H]1OC` [Example 31], for which the pIC50 with mouse mast cell line 6.5 (setting [3]) and in the experiment with HL60 tumor cells (setting [4]) was 5.70 throughout.
